From PMC9321663, “The DevTox Germ Layer Reporter Platform: An Assay Adaptation of the Human Pluripotent Stem Cell Test” (Toxics, 2022)
Read-outs that look alike come from different tables or passages of the source.

Assays:
H9 embryonic stem cells = conditions: concentration at cell viability cutoff; cited from earlier work
[1] = system: SOX17 (endoderm marker) in RUES2-GLR cells; assay: DevTox GLR-Endo assay: decrease in percent SOX17-positive cells (AEID 3094, Sox17_dn); conditions: for Emax / AC50: Homo sapiens; for Hit Call: Table S2, SOX17-positive cells, cutoff 3*bmad; for DevTox ACC: Table S2, percent SOX17-positive cells; for DevTox ACC / DevTox-GLR Endo ACC: 48 h exposure; for HIT−CALL: tcpl plot AEID3094, COFF 20.3; for AC50: read-out: ga (winning model), tcpl plot AEID3094, gain parameter of winning curve fit (log concentration, µM axis), hit calls only (converted); for DevTox-GLR Endo ACC: activity concentration at cutoff, SOX17-positive cells
Summary of the method: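 Readouts are loss of SOX17-positive fraction and reduced cell number in endoderm-differentiating RUES2-GLR cells after 48 h of chemical exposure. Controls: undifferentiated and differentiated cells, 0.2% DMSO, and 1 µM SB431542; at least four biological replicates.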

[2] = system: SOX17 (endoderm marker) in RUES2-GLR cells; assay: DevTox GLR-Endo assay: increase in percent SOX17-positive cells (AEID 3093, Sox17_up); format: cell-based, human; conditions: for Emax: Homo sapiens; for HIT−CALL: tcpl plot AEID3093, COFF 20.3
Experimental: (§1) The total test chemical incubation period was 48 h.
(§2) (Supplementary Materials).

RUES2-GLR cells = assay: in vitro; conditions: for Emax: Homo sapiens, read-out: Cell Count % Max Inhibition
[3] = system: SOX2 (ectoderm and pluripotency marker) in RUES2-GLR cells; assay: DevTox GLR-Endo assay: increase in percent SOX2-positive cells (AEID 3095, Sox2_up); conditions: for AC50 / Emax: Homo sapiens; for AC50: read-out: ga (winning model); for Emax: read-out: tp (winning model); for MAX_MEAN: tcpl plot AEID3095, maximum mean response; for MAX_MED: tcpl plot AEID3095, maximum median response;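 for all read-outs here: cells exposed to test chemicals for 48 h in total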
Experimental: RUES2-GLR cells were seeded 24 h prior to differentiation initiation into vitronectin-coated 384-well CellCarrier Ultra plates (10.6 mm^2/well) (Perkin Elmer, Waltham, MA, USA). Vitronectin (0.5 µg/cm^2)-coated plates were prepared and stored at 4 °C, wrapped in parafilm, for less than seven days and incubated at room temperature for one hour prior to cell seeding. […] Cells were dispensed into 20 µL coating solution using a Certus FLEX Micro Dispenser (Fritz Gyger, Gwatt, Switzerland) with a 0.45 µm valve to a final volume of 100 µL and density of 2.8 × 10^3 cells per well.
Following a 24 h post-seeding incubation period (Time = 0 h) (Figure 3A), directed endoderm differentiation was initiated with the PSC Definitive Endoderm Induction kit (Gibco, Waltham, MA, USA). […] A target dilution series (0.002–200 µM) was generated by dispensing variable nanoliter volumes of test chemical and backfilling with a complementary volume of DMSO using Echo Cherry Pick software (v.1.6.2). Wells were backfilled with 50 µL of induction medium using a Certus FLEX Micro Dispenser with 0.45 µm valves. Test compound treatment plates were mixed on a Multi-Microplate Genie mixer at 700 rpm for 10 min and subsequently incubated for two hours in a humidified atmosphere at 37 °C with 5% CO2. Each chemical treatment (0 h–Medium A; 24 h–Medium B) were prepared the day of treatment. At 0 h, cell culture medium was aspirated from the assay plate at a rate of 1 µL/s and 40 µL of Medium A ± test chemical applied using a CyBio FeliX automated liquid handler (Analytik Jena, Jena, Germany). At 24 h, conditioned cell culture medium was aspirated and 40 µL of Medium B ± test chemical was applied. At 48 h, cells were prepared for high-content image acquisition by fixation and nuclear staining. The total test chemical incubation period was 48 h. For fixation, a 4% paraformaldehyde (PFA) solution was achieved by adding 40 µL of 8% PFA directly to cell culture medium using a CyBio FeliX liquid handler. […] Following an additional 30 min incubation period at room temperature, staining solution was aspirated, 50 µL of DPBS was added, and plate sealed with MicroAmp Optical Adhesive Film (Applied Biosystems, Waltham, MA, USA).
Images were acquired within 12 h post-fixation using an Opera Phenix High-Content Screening System (Perkin Elmer, Waltham, MA, USA). […] Cell identification and mean biomarker fluorescent intensities were calculated using Harmony image analysis software (Perkin Elmer, Waltham, MA, USA). Cell nuclei were identified using the object classifying algorithm C of the software with border objects excluded using the “Remove Border Objects” feature. Mean cell biomarker intensity statistics were gathered from each object and exported for further analysis using a custom script in Python version 3.7.4 [61] […] For each plate, pluripotent-negative control wells were used to establish baseline intensity values and a cutoff threshold for determining SOX17 and BRA biomarker-positive cells. Endoderm differentiated positive control wells were used to establish baseline intensity values and a cutoff threshold for SOX2-positive cells. Cells with a mean intensity five times the baseline median absolute deviation (5*bmad) above the median cell intensity for plate-based control population technical replicates were considered positive. Well-based cell counts, reflected by the sum of total counted objects from all fields, were used to calculate the percent responders for each respective biomarker and evaluate cytotoxicity. Well-level results were exported for data modeling in the ToxCast Pipeline.
The ToxCast Pipeline R package (tcpl v.2.0.2) was used to normalize, fit, and qualify concentration-response screening data [63].

[4] = system: o/c ratio in H9 embryonic stem cells; conditions: Teratogen Index, o/c ratio; cited from earlier work
[5] = cited from earlier work; for Development Toxicant Classification: Table S2; for Classification: developmental toxicant classification (Teratogen / Non-Teratogen) of reference and training chemicals, ref DOI per chemical: 10.1093/toxsci/kft239, 10.1093/toxsci/kfaa014, 10.1177/026119290203000204, 10.1038/s41598-020-59542-x; for DT Class.: developmental toxicant classification, chemicals common with quickPredict
[6] = system: BRA (mesoderm marker) in RUES2-GLR cells; assay: DevTox GLR-Endo assay: increase in percent BRA-positive cells (AEID 3096, Bra_up); format: cell-based, human; conditions: for HIT−CALL: tcpl plot AEID3096, COFF 0.774; for MAX_MEAN: tcpl plot AEID3096, maximum mean response; for MAX_MED: tcpl plot AEID3096, maximum median response
Experimental: as §1, §2

[7] = read-out: DevTox % Max Inhibition
[8] = tcpl plot AEID3093, maximum mean response, read-out: MAX_MEAN
[9] = tcpl plot AEID3093, maximum median response, read-out: MAX_MED

Structure (SMILES): CN(Cc1cnc2nc(N)nc(N)c2n1)c1ccc(C(=O)N[C@@H](CCC(=O)O)C(=O)O)cc1 [Methotrexate]
- quickPredict CV (H9 embryonic stem cells): 0.062 µM
- hit call designation (in words) ([1]; DevTox GLR-Endo prediction against developmental toxicant classification): borderline calls
- Emax [1, 7]: 24.6%
- Emax ([1]; read-out: MAX_MEAN): 22.4%
- Emax ([1]; read-out: MAX_MED): 24.6%
- Emax ([1]; read-out: maximum observed effect level class (% max inhibition)): 20 to 80%
- Hit Call [1]: Negative
- DevTox ACC [1]: >200 µM
- HIT−CALL [1]: 0
- Emax [2, 8]: 2.23%
- Emax [2, 9]: 2.87%
- HIT−CALL [2]: 0
- effect on cell count (in words) (RUES2-GLR cells): significant decreases in cell count
- Emax (RUES2-GLR cells): 44.6%
- Cell Count ACC (RUES2-GLR cells; human, 48 h): 0.3474 µM
- DevTox-GLR Endo CC (RUES2-GLR cells; human, 48 h): 0.35 µM
- effect on cell count (in words) (RUES2-GLR cells; human, 48 h): significant cell loss that did not impact SOX17-positive populations
- AC50 [3]: 0.0525 µM
- Emax [3]: 0.771%
- MAX_MEAN [3]: 0.917 Percent Activity
- MAX_MED [3]: 0.899 Percent Activity
- quickPredict TI [4]: 0.059 µM
- Development Toxicant Classification [5]: Positive
- Classification [5]: Teratogen
- DT Class. [5]: Pos
- HIT−CALL [6]: 1
- MAX_MEAN [6]: 1.26 Percent Activity
- MAX_MED [6]: 1.19 Percent Activity

Structure (SMILES): CS(=O)(=O)OCCCCOS(C)(=O)=O [Busulfan]
- quickPredict CV (H9 embryonic stem cells): 4.91 µM
- Emax [1, 7]: 100%
- Emax ([1]; read-out: MAX_MEAN): 100%
- Emax ([1]; read-out: MAX_MED): 100%
- AC50 [1]: 38.9 µM
- Emax ([1]; read-out: tp (winning model)): 101%
- Hit Call [1]: Positive
- DevTox ACC [1]: 25.262 µM
- DevTox-GLR Endo ACC [1]: 25.26 µM
- HIT−CALL [1]: 1
- Emax [2, 8]: 7.27%
- Emax [2, 9]: 12.6%
- HIT−CALL [2]: 0
- effect on cell count (in words) (RUES2-GLR cells): significant decreases in cell count
- Emax (RUES2-GLR cells): 82.3%
- Cell Count ACC (RUES2-GLR cells; human, 48 h): 5.795 µM
- DevTox-GLR Endo CC (RUES2-GLR cells; human, 48 h): 5.79 µM
- AC50 [3]: 145 µM
- Emax [3]: 4.09%
- MAX_MEAN [3]: 2.43 Percent Activity
- MAX_MED [3]: 2.59 Percent Activity
- quickPredict TI [4]: 2.31 µM
- Development Toxicant Classification [5]: Positive
- Classification [5]: Teratogen
- DT Class. [5]: Pos
- HIT−CALL [6]: 0
- MAX_MEAN [6]: 2.12 Percent Activity
- MAX_MED [6]: 2.19 Percent Activity

Structure (SMILES): CC(C)(c1ccc(O)cc1)c1ccc(O)cc1 [Bisphenol A]
- quickPredict CV (H9 embryonic stem cells): 39.4 µM
- Emax [1, 7]: 102%
- Emax ([1]; read-out: MAX_MEAN): 102%
- Emax ([1]; read-out: MAX_MED): 102%
- AC50 [1]: 38.9 µM
- Emax ([1]; read-out: tp (winning model)): 102%
- Hit Call [1]: Positive
- DevTox ACC [1]: 31.7467 µM
- DevTox-GLR Endo ACC [1]: 31.75 µM
- HIT−CALL [1]: 1
- Emax [2, 8]: 9.9%
- Emax [2, 9]: 10.7%
- HIT−CALL [2]: 0
- Emax (RUES2-GLR cells): 94.4%
- Cell Count ACC (RUES2-GLR cells; human, 48 h): 21.1157 µM
- DevTox-GLR Endo CC (RUES2-GLR cells; human, 48 h): 21.12 µM
- AC50 [3]: 38 µM
- Emax [3]: 3.24%
- MAX_MEAN [3]: 4.11 Percent Activity
- MAX_MED [3]: 3.32 Percent Activity
- Development Toxicant Classification [5]: Positive
- Classification [5]: Teratogen
- DT Class. [5]: Pos
